Residues, ends and D or L forms follow the SMILES beside them.
Columns and labels:
[1] = Binding affinity to recombinant G-CSFR extracellular domain (unknown origin) by surface plasmon resonance analysis; design: species or system Homo sapiens
[2] = Stability of the compound at 20 deg C assessed as change in alpha-helical structure by CD spectra analysis; type: physicochemical
[3] = molecular target: T1, Granulocyte colony-stimulating factor receptor (Homo sapiens) (UniProt Q99062); assay: Potency index, ratio of P8-2KA KD to test compound KD for binding affinity to recombinant G-CSFR extracellular domain (unknown origin)
T1 sequence (whole entry): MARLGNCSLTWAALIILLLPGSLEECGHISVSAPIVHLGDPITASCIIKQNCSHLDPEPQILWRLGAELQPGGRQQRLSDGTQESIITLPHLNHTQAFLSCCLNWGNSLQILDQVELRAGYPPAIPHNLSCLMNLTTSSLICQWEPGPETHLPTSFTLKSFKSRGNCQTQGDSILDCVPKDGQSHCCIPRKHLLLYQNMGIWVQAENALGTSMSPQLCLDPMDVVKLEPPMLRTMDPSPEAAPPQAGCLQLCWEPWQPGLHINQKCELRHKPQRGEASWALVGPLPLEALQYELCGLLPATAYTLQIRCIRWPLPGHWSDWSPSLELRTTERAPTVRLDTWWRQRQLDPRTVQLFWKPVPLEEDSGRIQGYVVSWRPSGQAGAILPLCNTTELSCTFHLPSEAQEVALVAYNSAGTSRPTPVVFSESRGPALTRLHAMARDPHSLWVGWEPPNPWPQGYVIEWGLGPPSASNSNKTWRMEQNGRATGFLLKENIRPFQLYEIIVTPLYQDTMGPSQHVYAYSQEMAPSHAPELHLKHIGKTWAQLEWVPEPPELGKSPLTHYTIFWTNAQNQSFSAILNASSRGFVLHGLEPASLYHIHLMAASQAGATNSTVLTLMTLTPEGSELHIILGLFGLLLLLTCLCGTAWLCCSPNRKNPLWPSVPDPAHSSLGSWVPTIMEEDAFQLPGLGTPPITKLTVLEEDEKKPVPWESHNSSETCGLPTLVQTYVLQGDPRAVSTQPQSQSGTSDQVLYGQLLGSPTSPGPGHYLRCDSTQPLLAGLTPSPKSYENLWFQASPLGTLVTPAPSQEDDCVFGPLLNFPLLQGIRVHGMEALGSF

Row | Compound | Kd [1] [pM] | Stability [2] | Ratio [3]
1 | CC[C@H](C)[C@H](NC(=O)[C@H](CCC(=O)O)NC(=O)[C@H](C)NC(=O)[C@H](CCC(=O)O)NC(=O)[C@H](CC(C)C)NC(=O)[C@H](C)NC(=O)[C@H](C)NC(=O)[C@H](CC(C)C)NC(=O)[C@H](CCC(=O)O)NC(=O)[C@H](C)NC(=O)[C@H](C)NC(=O)[C@@H](N)CS)C(=O)N[C@@H](C)C(=O)N[C@@H](C)C(=O)N[C@@H](CC(C)C)C(=O)N[C@@H](CCC(=O)O)C(=O)NCC(=O)NCC(=O)NCC(=O)NCC(=O)NCC(=O)NCC(=O)NCC(=O)N[C@@H](Cc1ccc(O)cc1)C(=O)N[C@@H](CC(C)C)C(=O)N[C@@H](CCC(=O)O)C(=O)N[C@@H](CCSC)C(=O)N[C@@H](CC(C)C)C(=O)N[C@@H](CCCCN)C(=O)N[C@@H](CC(C)C)C(=O)N[C@@H](CCCCN)C(=O)N[C@@H](CC(C)C)C(=O)N[C@@H](C)C(=O)N[C@@H](CCC(=O)O)C(=O)N[C@@H](C)C(=O)N[C@@H](CCCCN)C(=O)N[C@@H](CCCNC(=N)N)C(=O)N[C@@H](Cc1ccc(O)cc1)C(=O)N[C@@H](CS)C(=O)O (H-CAAELAALEAEIAALEGGGGGGGYLEMLKLKLAEAKRYC-OH) | 240 |  | 
2 | CC[C@H](C)[C@H](NC(=O)[C@H](C)NC(=O)[C@H](CC(C)C)NC(=O)[C@H](CCC(=O)O)NC(=O)[C@H](C)NC(=O)[C@H](C)NC(=O)[C@@H](N)CS)C(=O)N[C@@H](CC(C)C)C(=O)N[C@@H](CCC(=O)O)C(=O)N[C@@H](C)C(=O)N[C@@H](CCC(=O)O)C(=O)N[C@H](C(=O)N[C@@H](C)C(=O)N[C@@H](C)C(=O)N[C@@H](CC(C)C)C(=O)N[C@@H](CCC(=O)O)C(=O)NCC(=O)NCC(=O)NCC(=O)NCC(=O)NCC(=O)NCC(=O)NCC(=O)N[C@@H](CCCCN)C(=O)N[C@@H](CC(C)C)C(=O)N[C@@H](CCC(=O)O)C(=O)N[C@@H](CCSC)C(=O)N[C@@H](CC(C)C)C(=O)N[C@@H](CCCCN)C(=O)N[C@@H](CC(C)C)C(=O)N[C@@H](CCCCN)C(=O)N[C@@H](CC(C)C)C(=O)N[C@@H](C)C(=O)N[C@@H](CCC(=O)O)C(=O)N[C@@H](C)C(=O)N[C@@H](CCCCN)C(=O)N[C@@H](CCCNC(=N)N)C(=O)N[C@@H](Cc1ccc(O)cc1)C(=O)N[C@@H](CS)C(=O)O)[C@@H](C)CC (H-CAAELAILEAEIAALEGGGGGGGKLEMLKLKLAEAKRYC-OH) | 890 |  | 
3 | CC[C@H](C)[C@H](NC(=O)[C@H](C)NC(=O)[C@H](CC(C)C)NC(=O)[C@H](CCC(=O)O)NC(=O)[C@H](C)NC(=O)[C@H](C)NC(=O)[C@@H](N)CS)C(=O)N[C@@H](CC(C)C)C(=O)N[C@@H](CCC(=O)O)C(=O)N[C@@H](C)C(=O)N[C@@H](CCC(=O)O)C(=O)N[C@@H](CC(C)C)C(=O)N[C@@H](C)C(=O)N[C@@H](C)C(=O)N[C@@H](CC(C)C)C(=O)N[C@@H](CCC(=O)O)C(=O)NCC(=O)NCC(=O)NCC(=O)NCC(=O)NCC(=O)NCC(=O)NCC(=O)N[C@@H](Cc1ccc(O)cc1)C(=O)N[C@@H](CC(C)C)C(=O)N[C@@H](CCC(=O)O)C(=O)N[C@@H](CCSC)C(=O)N[C@@H](CC(C)C)C(=O)N[C@@H](CCCCN)C(=O)N[C@@H](CC(C)C)C(=O)N[C@@H](CCCCN)C(=O)N[C@@H](CC(C)C)C(=O)N[C@@H](C)C(=O)N[C@@H](CCC(=O)O)C(=O)N[C@@H](C)C(=O)N[C@@H](CCCCN)C(=O)N[C@@H](CCCNC(=N)N)C(=O)N[C@@H](Cc1ccc(O)cc1)C(=O)N[C@@H](CS)C(=O)O (H-CAAELAILEAELAALEGGGGGGGYLEMLKLKLAEAKRYC-OH) | 490 |  | 
4 | H-AELAILEAEIAALEGGGGGGGYLEMLKLKLAEAKRY-OH | 16000 | Stable | 24

The remaining compounds from weak to strong by Kd [1], led by results:

Row | Kd [1] [pM] | Stability [2] | Ratio [3] | Compound
5 | 380000 | Stable |  | H-AELAALEAELAALEGGGGGGGKLAMLKLKLAELKRY-OH
6 | 2800 |  |  | CC[C@H](C)[C@H](NC(=O)[C@H](C)NC(=O)[C@H](CC(C)C)NC(=O)[C@H](CCC(=O)O)NC(=O)[C@H](C)NC(=O)[C@H](C)NC(=O)[C@@H](N)CS)C(=O)N[C@@H](CC(C)C)C(=O)N[C@@H](CCC(=O)O)C(=O)N[C@@H](C)C(=O)N[C@@H](CCC(=O)O)C(=O)N[C@H](C(=O)N[C@@H](C)C(=O)N[C@@H](C)C(=O)N[C@@H](CC(C)C)C(=O)N[C@@H](CCC(=O)O)C(=O)NCC(=O)NCC(=O)NCC(=O)NCC(=O)NCC(=O)NCC(=O)NCC(=O)N[C@@H](Cc1ccc(O)cc1)C(=O)N[C@@H](CC(C)C)C(=O)N[C@@H](CCC(=O)O)C(=O)N[C@@H](CCSC)C(=O)N[C@@H](CC(C)C)C(=O)N[C@@H](CCCCN)C(=O)N[C@@H](CC(C)C)C(=O)N[C@@H](CCCCN)C(=O)N[C@@H](CC(C)C)C(=O)N[C@@H](C)C(=O)N[C@@H](CCC(=O)O)C(=O)N[C@@H](CC(C)C)C(=O)N[C@@H](CCCCN)C(=O)N[C@@H](CCCNC(=N)N)C(=O)N[C@@H](Cc1ccc(O)cc1)C(=O)N[C@@H](CS)C(=O)O)[C@@H](C)CC (H-CAAELAILEAEIAALEGGGGGGGYLEMLKLKLAELKRYC-OH)
7 | 180 |  |  | CC[C@H](C)[C@H](NC(=O)[C@H](C)NC(=O)[C@H](CC(C)C)NC(=O)[C@H](CCC(=O)O)NC(=O)[C@H](C)NC(=O)[C@H](C)NC(=O)[C@@H](N)CS)C(=O)N[C@@H](CC(C)C)C(=O)N[C@@H](CCC(=O)O)C(=O)N[C@@H](C)C(=O)N[C@@H](CCC(=O)O)C(=O)N[C@H](C(=O)N[C@@H](C)C(=O)N[C@@H](C)C(=O)N[C@@H](CC(C)C)C(=O)N[C@@H](CCC(=O)O)C(=O)NCC(=O)NCC(=O)NCC(=O)NCC(=O)NCC(=O)NCC(=O)NCC(=O)N[C@@H](Cc1ccc(O)cc1)C(=O)N[C@@H](CC(C)C)C(=O)N[C@@H](CCC(=O)O)C(=O)N[C@@H](CCSC)C(=O)N[C@@H](CC(C)C)C(=O)N[C@@H](CCCCN)C(=O)N[C@@H](CC(C)C)C(=O)N[C@@H](CCCCN)C(=O)N[C@@H](CC(C)C)C(=O)N[C@@H](C)C(=O)N[C@@H](CCC(=O)O)C(=O)N[C@@H](C)C(=O)N[C@@H](CCCCN)C(=O)N[C@@H](CCCNC(=N)N)C(=O)N[C@@H](Cc1ccc(O)cc1)C(=O)N[C@@H](CS)C(=O)O)[C@@H](C)CC (H-CAAELAILEAEIAALEGGGGGGGYLEMLKLKLAEAKRYC-OH)
8 | 160 |  |  | CC[C@H](C)[C@H](NC(=O)[C@H](C)NC(=O)[C@H](CC(C)C)NC(=O)[C@H](CCC(=O)O)NC(=O)[C@H](C)NC(=O)[C@H](C)NC(=O)[C@@H](N)CS)C(=O)N[C@@H](CC(C)C)C(=O)N[C@@H](CCC(=O)O)C(=O)N[C@@H](C)C(=O)N[C@@H](CCC(=O)O)C(=O)N[C@H](C(=O)N[C@@H](C)C(=O)N[C@@H](C)C(=O)N[C@@H](CC(C)C)C(=O)N[C@@H](CCC(=O)O)C(=O)NCC(=O)NCC(=O)NCC(=O)NCC(=O)NCC(=O)NCC(=O)NCC(=O)N[C@@H](Cc1ccc(O)cc1)C(=O)N[C@@H](CC(C)C)C(=O)N[C@@H](C)C(=O)N[C@@H](CCSC)C(=O)N[C@@H](CC(C)C)C(=O)N[C@@H](CCCCN)C(=O)N[C@@H](CC(C)C)C(=O)N[C@@H](CCCCN)C(=O)N[C@@H](CC(C)C)C(=O)N[C@@H](C)C(=O)N[C@@H](CCC(=O)O)C(=O)N[C@@H](C)C(=O)N[C@@H](CCCCN)C(=O)N[C@@H](CCCNC(=N)N)C(=O)N[C@@H](Cc1ccc(O)cc1)C(=O)N[C@@H](CS)C(=O)O)[C@@H](C)CC (H-CAAELAILEAEIAALEGGGGGGGYLAMLKLKLAEAKRYC-OH)
